The numbers were not newly measured in PMC10615786 (Cell, 2023), which cites them from elsewhere.

For data set [1], the system named is ROS level. As to conditions: general statement, no data or reference printed.
The subject of data set [2] is LRX3. As to conditions: modulates salt tolerance.
Data set [3] concerns LRX4. Particulars: modulates salt tolerance.

For `c1ccc2c(c1)[I+]c1ccccc1-2` [DPI], in data set [1], the “ROS levels in vivo” value was “lower ROS levels in vivo”. On to “sRALF23: stigma-expressing RALF peptide (ATRRYISYGALRRNTIPCSRRGASYYNCRRGAQANPYSRGCSAITRCRRS; UniProt Q9LUS7 89-138, looked up)”, for which, in data set [2], the “binding to LRX3” value is “bind to LRX3 and LRX4”. For the same compound, the “binding to LRX4” value in data set [3] is “bind to LRX3 and LRX4”.
